Test results published in patent US20070088023A1, “Method of administration for 5-(2-chlorophenyl)-1,2-dihydro-7-fluoro-8-methoxy-3-methyl-oyrazolo[1,4]benzodiazepine” (priority 2005, published 2007).
Like-named read-outs stand apart in the source and are kept apart here.

Experiment: pre-clinical good laboratory practices toxicology, maximum tolerated dose
Set-up: species or system rats
Conditions: rat, in vivo
Description: The starting dose is based on pre-clinical good laboratory practices toxicological results, according to the accepted standards. […] Thus, the maximum tolerated dose equivalent for this trial will be 1/10th of the HED or 1.8 rounded down to 1.5 mg/m^2/day with dose escalation in 1.5 mg/m^2 increments to 30 mg/m^2 or until dose limiting toxicity(s)(DLT) occur.

SMILES: COc1cc2c(cc1F)C(c1ccccc1Cl)=Nc1c(n[nH]c1C)N2 [compound of Formula I, 5-(2-chlorophenyl)-1,2-dihydro-7-fluoro-8-methoxy-3-methyl-pyrazolo[3,4-b][1,4]benzodiazepine]
- MTD (rat MTD 3 mg/kg/day times 6, read-out: HED (human equivalent dose) of the rat maximum tolerated dose): 18 mg/kg/day
- MTD (rats, pre-clinical GLP toxicology, read-out: maximum tolerated dose in rats): 3 mg/kg/day
